# Measurements reported in US11046710B2, “Sulfonamide compounds” (DAIICHI SANKYO COMPANY, LIMITED, priority 2016, dated 2021).
# Biological target: human TNAP (Homo sapiens (Human), UniProt P05186)
# Assay: Inhibitory test of TNAP activity (pNPP substrate, p-nitrophenol production)
# Format: biochemical
# Conditions: human TNAP from transfected COS1 culture supernatant, 60 minutes at room temperature
# Method: COS1 cells (DS Pharma Biomedical Co., Ltd.) were transfected with human TNAP (OriGene Technologies, Inc.) using Lipofectamine LTX & Plus reagent (Invitrogen Corp.). On the next day, the medium was replaced with a fresh medium, and the cells were cultured in an incubator for 3 days. After 3 days, the culture supernatant was collected and concentrated by centrifugation at 5000 G for 30 minutes using Amicon 14, 10^4 cut (Merck Millipore). The concentrated culture supernatant was dialyzed against 5 L of 50 mM Tris/200 mM NaCl/1 mM MgCl2/20 μM ZnCl2 twice and used as an enzyme source (enzyme solution). The substrate pNPP (ProteoChem Inc.) was adjusted to 3.1 mM with Milli-Q water, and a solution of each test compound dissolved in dimethyl sulfoxide (DMSO; Wako Pure Chemical Industries, Ltd.) by 6 serial dilutions at a 5-fold common ratio from 100 μM, or DMSO was added thereto at a final concentration of 1% by volume. The enzyme solution adjusted to 2 μg/mL with an assay buffer (200 mM Tris/2 mM MgCl2/0.04 mM ZnCl2/0.01% Tween 20) was added in the same amount of the substrate solution and incubated at room temperature for 60 minutes. Then, the absorbance (ABS: 405 nm) was measured using a microplate reader (model plus 384, Molecular Devices, LLC), and the concentration of produced p-nitrophenol was calculated.
# Sequence of human TNAP (P05186 18-524): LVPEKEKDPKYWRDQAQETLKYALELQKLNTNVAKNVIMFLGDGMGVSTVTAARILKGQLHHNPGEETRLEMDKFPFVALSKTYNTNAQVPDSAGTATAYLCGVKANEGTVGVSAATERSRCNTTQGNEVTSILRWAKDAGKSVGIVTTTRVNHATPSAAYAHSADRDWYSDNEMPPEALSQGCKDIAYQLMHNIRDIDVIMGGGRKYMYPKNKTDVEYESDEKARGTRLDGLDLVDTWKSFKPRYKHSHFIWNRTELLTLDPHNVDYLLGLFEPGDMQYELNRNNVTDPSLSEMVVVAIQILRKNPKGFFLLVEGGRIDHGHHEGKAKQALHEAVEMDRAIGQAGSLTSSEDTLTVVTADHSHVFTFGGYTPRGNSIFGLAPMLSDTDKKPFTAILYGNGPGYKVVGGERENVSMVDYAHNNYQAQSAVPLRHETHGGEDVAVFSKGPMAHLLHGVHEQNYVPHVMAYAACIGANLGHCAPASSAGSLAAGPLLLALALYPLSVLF
row,IC50 [nM],Structure (SMILES)
1,1.5,"CC(=O)O[C@H]1C[C@@H]2COc3ncc(NS(=O)(=O)c4cc(Cl)ccc4OC(F)(F)F)cc3C(=O)N2C1 [Example 47, (8S,9aR)-3-({[5-chloro-2-(trifluoromethoxy)phenyl]sulfonyl}amino)-5-oxo-8,9,9a,10-tetrahydro-5H,7H-pyrido[3,2-f]pyrrolo[2,1-c][1,4]oxazepin-8-yl acetate]"
2,2.2,"COc1ccc(Cl)cc1S(=O)(=O)Nc1cnc2c(c1)CN1C(=O)CC[C@H]1CO2 [Example 52, 5-chloro-2-methoxy-N-[(9aS)-7-oxo-8,9,9a,10-tetrahydro-5H,7H-pyrido[3,2-f]pyrrolo[2,1-c][1,4]oxazepin-3-yl]benzenesulfonamide]"
3,4.3,"COc1ccc(Cl)cc1S(=O)(=O)Nc1cnc2c(c1)CN1C(=O)[C@H](O)C[C@H]1CO2 [Example 53, 5-chloro-N-[(8R,9aS)-8-hydroxy-7-oxo-8,9,9a,10-tetrahydro-5H,7H-pyrido[3,2-f]pyrrolo[2,1-c][1,4]oxazepin-3-yl]-2-methoxybenzenesulfonamide]"
4,1.4,"O=C1[C@@H](O)C[C@H]2COc3ncc(NS(=O)(=O)c4cc(Cl)ccc4OC(F)(F)F)cc3CN12 [Example 56, 5-chloro-N-[(8S,9aS)-8-hydroxy-7-oxo-8,9,9a,10-tetrahydro-5H,7H-pyrido[3,2-f]pyrrolo[2,1-c][1,4]oxazepin-3-yl]-2-(trifluoromethoxy)benzenesulfonamide]"
5,3.8,"COc1ccc(Cl)cc1S(=O)(=O)Nc1cnc2c(c1)CN1C(=O)OC[C@H]1CO2 [Example 58, 5-chloro-2-methoxy-N-[(9aR)-7-oxo-9a,10-dihydro-5H, 9H-[1,3]oxazolo[4,3-c]pyrido[3,2-f][1,4]oxazepin-3-yl]benzenesulfonamide]"
6,1.4,"COc1ccc(Cl)cc1S(=O)(=O)Nc1cnc2c(c1)CN1C(=O)CCC[C@H]1CO2 [Example 59, 5-chloro-2-methoxy-N-[(10aS)-7-oxo-7,8,9,10,10a, 11-hexahydro-5H-dipyrido[2,1-c:3′,2′-f][1,4]oxazepin-3-yl]benzenesulfonamide]"
7,3.3,"COc1ccc(Cl)cc1S(=O)(=O)Nc1cnc2c(c1)CN1C(=O)COC[C@H]1CO2 [Example 60, 5-chloro-2-methoxy-N-[(10aS)-7-oxo-7,8,10a,11-tetrahydro-5H,10H-[1,4]oxazino[3,4-c]pyrido[3,2-f][1,4]oxazepin-3-yl]benzenesulfonamide]"
8,1.4,O=C1COCC2COc3ncc(NS(=O)(=O)c4cc(Cl)ccc4OC(F)(F)F)cc3CN12 (stereo not drawn) [Example 63]
9,1.8,"COc1ccc(Cl)cc1S(=O)(=O)Nc1cnc2c(c1)CN1C(=O)CN(C)C[C@H]1CO2 [Example 64, 5-chloro-2-methoxy-N-[(10aS)-9-methyl-7-oxo-7,8,9,10,10a, 11-hexahydro-5H-pyrazino[2,1-c]pyrido[3,2-f][1,4]oxazepin-3-yl]benzenesulfonamide]"

row,Structure (SMILES),IC50 [nM]
1,"CNC(=O)O[C@H]1C[C@@H]2COc3ncc(NS(=O)(=O)c4cc(Cl)ccc4OC)cc3C(=O)N2C1 [Example 48, (8S,9aR)-3-{[(5-chloro-2-methoxyphenyl)sulfonyl]amino}-5-oxo-8,9,9a,10-tetrahydro-5H, 7H-pyrido[3,2-f]pyrrolo[2,1-c][1,4]oxazepin-8-yl methylcarbamate]",0.6
2,"COC(=O)N[C@@H]1C[C@@H]2COc3ncc(NS(=O)(=O)c4cc(Cl)ccc4OC)cc3C(=O)N2C1 [Example 50, methyl [(8R,9aR)-3-{[(5-chloro-2-methoxyphenyl)sulfonyl]amino}-5-oxo-8,9,9a,10-tetrahydro-5H, 7H-pyrido[3,2-f]pyrrolo[2,1-c][1,4]oxazepin-8-yl]carbamate]",0.5
3,"COc1ccc(Cl)cc1S(=O)(=O)Nc1cnc2c(c1)CN1C(=O)[C@@H](O)C[C@H]1CO2 [Example 54, 5-chloro-N-[(8S,9aS)-8-hydroxy-7-oxo-8,9,9a,10-tetrahydro-5H,7H-pyrido[3,2-f]pyrrolo[2,1-c][1,4]oxazepin-3-yl]-2-methoxybenzenesulfonamide]",1.1
4,"CCOc1ccc(F)cc1S(=O)(=O)Nc1cnc2c(c1)CN1C(=O)COC[C@H]1CO2 [Example 61, 2-ethoxy-5-fluoro-N-[(10aS)-7-oxo-7,8,10a,11-tetrahydro-5H,10H-[1,4]oxazino[3,4-c]pyrido[3,2-f][1,4]oxazepin-3-yl]benzenesulfonamide]",0.6

# System: plasma ALP (80-90% containing TNAP)
# Assay: Inhibitory test of plasma TNAP activity in B6 mouse
# Format: in vivo
# Conditions: oral, dose 1 mg/kg, average 0-6 h after administration
# Method: After blood sampling from the tail vein using a heparin-treated hematocrit capillary tube (EM Meister Hematocrit Capillary Tube, AS ONE Corp.) (as the sample before compound administration), each test compound suspended in a 0.5% methylcellulose solution (powder purchased from Wako Pure Chemical Industries, Ltd. was adjusted to 0.5% with Otsuka distilled water) was administered orally to the mouse. 1, 2, 4, 6, and 24 hours after the administration, blood was collected from the tail vein using a heparin-treated hematocrit capillary tube to obtain a plasma sample. The plasma sample was added to an assay buffer (1 M Tris, 1 M MgCl2, 20 mM ZnCl2, and water, pH 7.5), and the mixture was left standing for 5 minutes. Then, the absorbance at 405 nm was measured and used as a blank. The substrate pNPP was added to the plasma sample and incubated at room temperature for 180 minutes. Then, the absorbance (ABS: 405 nm) was measured using a microplate reader (model plus 384, Molecular Devices, LLC), and the concentration of produced p-nitrophenol was calculated. The blank was subtracted from all measurement values to calculate TNAP activity at each time point with the TNAP activity of the sample before compound administration defined as 100%. The pharmaceutical effect of the test compound was evaluated by the average inhibition of plasma ALP (80-90% containing TNAP) activity for 6 hours from 0 hour to 6 hour after the administration of the test compound. It was calculated according to the following expression: 100−((plasma ALP activity at 0 hr+plasma ALP activity at 1 hr)*½+(plasma ALP activity at 1 hr+plasma ALP activity at 2 hr)*½+(plasma ALP activity at 2 hr+plasma ALP activity at 4 hr)*2/2+(plasma ALP activity at 4 hr+plasma ALP activity at 6 hr)*2/2)/6 The results are shown in Table 2.
row,Structure (SMILES),Plasma ALP inhibition (6 h ave. inhibition %) [%]
1,"COc1ccc(Cl)cc1S(=O)(=O)[N-]c1cnc2c(c1)-c1nnc(C)n1CCO2.[K+] [Example 2, Potassium [(5-chloro-2-methoxyphenyl)sulfonyl](3-methyl-5,6-dihydropyrido[3,2-f][1,2,4]triazolo[4,3-d][1,4]oxazepin-10-yl)azanide]",34.4
2,"CCc1nnc2n1CCOc1ncc([N-]S(=O)(=O)c3cc(Cl)ccc3OC)cc1-2.[K+] [Example 4, Potassium [(5-chloro-2-methoxyphenyl)sulfonyl](3-ethyl-5,6-dihydropyrido[3,2-f][1,2,4]triazolo[4,3-d][1,4]oxazepin-10-yl)azanide]",40.7

# Same assay, conditions: oral, dose 3 mg/kg, average 0-6 h after administration
row,Structure (SMILES),Plasma ALP inhibition (6 h ave. inhibition %) [%]
1,"COc1ccc(Cl)cc1S(=O)(=O)[N-]c1cnc2c(c1)-c1ccnn1CCO2.[K+] [Example 8, Potassium [(5-chloro-2-methoxyphenyl)sulfonyl](5,6-dihydropyrazolo[1,5-d]pyrido[3,2-f][1,4]oxazepin-10-yl)azanide]",29.4
2,"CCOc1ccc(F)cc1S(=O)(=O)[N-]c1cnc2c(c1)-c1ccnn1CCO2.[K+] [Example 10, Potassium 5,6-dihydropyrazolo[1,5-d]pyrido[3,2-f][1,4]oxazepin-10-yl[(2-ethoxy-5-fluorophenyl)sulfonyl]azanide]",43.3
3,"CCOc1ncc(F)cc1S(=O)(=O)[N-]c1cnc2c(c1)-c1ccnn1CCO2.[K+] [Example 15, Potassium 5,6-dihydropyrazolo[1,5-d]pyrido[3,2-f][1,4]oxazepin-10-yl[(2-ethoxy-5-fluoropyridin-3-yl)sulfonyl]azanide]",61.4
4,"CCOc1ccc(F)cc1S(=O)(=O)[N-]c1cnc2c(c1)-c1ccnn1[C@@H](C)CO2.[K+] [Example 19, Potassium [(2-ethoxy-5-fluorophenyl)sulfonyl][(5S)-5-methyl-5,6-dihydropyrazolo[1,5-d]pyrido[3,2-f][1,4]oxazepin-10-yl]azanide]",27.5
5,"COc1ncc(Cl)cc1S(=O)(=O)[N-]c1cnc2c(c1)-c1ccnn1[C@@H](C)CO2.[K+] [Example 22, potassium [(5-chloro-2-methoxypyridin-3-yl)sulfonyl][(5S)-5-methyl-5,6-dihydropyrazolo[1,5-d]pyrido[3,2-f][1,4]oxazepin-10-yl]azanide]",28.4
6,"CCOc1ncc(F)cc1S(=O)(=O)[N-]c1cnc2c(c1)-c1ccnn1[C@@H](C)CO2.[K+] [Example 25, potassium [(2-ethoxy-5-fluoropyridin-3-yl)sulfonyl][(5S)-5-methyl-5,6-dihydropyrazolo[1,5-d]pyrido[3,2-f][1,4]oxazepin-10-yl]azanide]",55.5
